Patent US20140170096A1, “SUNSCREEN COMPOSITIONS” (priority 2011, published 2014)
Entries after “also recorded” stand apart in the source; their conditions may differ. Read-outs that look alike come from different tables or passages of the source.

Legend:
[1] = test system: coral reefs; assay: Summary of eco-compatibility of tested products with coral reefs; set-up: species or system Acropora sp.
Protocol: In order to select the most eco-compatible products for each group of compounds (i.e., base cream, fragrance, antioxidants and filters) the following criteria were selected:
1. coral bleaching level; 2. degree of release of symbiotic zooxanthellae; 3. zooxanthellae health conditions; 4. viral enrichment in the incubation medium with respect to controls.

[2] = test system: stony coral Acropora sp. nubbins; assay: Quantification of coral bleaching by colorimetric (CMYK) analysis of digital photographs; format: in vivo; conditions: Acropora sp. (stony coral), in vivo, 72 h
Protocol: (§1) In situ tests were performed on nubbins (i.e., small branches of about 3-6 cm) of the stony coral Acropora sp. The nubbins were incubated in microcosms in presence of known concentrations of various ingredients potentially to be included in the composition of the eco-compatible sunscreen cream. In particular, coral nubbins (including more than 3000 polyps each) were collected by scuba divers from the same colony, located at a depth of about 3 m on the edge of the reef slope. Sampling of nubbins was performed by means of forceps. The nubbins were washed with seawater filtered onto 0.02-μm filters to eliminate viruses and prokaryotes. Each microcosm was prepared with a replicate set of nubbins (n=3) immersed in sterile polyethylene bags (Whirl-pack, Nasco, Fort Atkinson, Wis., USA) filled with 2 L filtered seawater. A total of 27 microcosms were prepared, in order to test 20 ingredients with the respective positive and negative controls. The microcosms were incubated at in situ temperature and light conditions for 72 hours.
Photographs were taken under identical illumination with a Canon PowerShot A620 digital camera (Canon Inc., Tokyo, Japan) with a scale meter on the background. The photos were successively analyzed with a photo-editing software (Adobe Photoshop CS2) for color composition [cyan, magenta, yellow, black (CMYK)]. Levels of bleaching were measured as the difference between the corals' color at the beginning of the experiment and after treatments. Variations in the percentage of the different color components (CMYK) were analyzed with one-way analysis of variance (ANOVA). To rank the bleaching effect due to the compounds tested, a Bray-Curtis similarity matrix was prepared and a multidimensional scaling analysis of the shifts in CMYK color composition of treated corals was performed using Primer 5.0 software (Primer-E Ltd., Plymouth, UK). Bleaching rates were measured as the dissimilarity percentage in CMYK color composition between treated and control corals using the SIMPER tool of Primer 5.0 software (Primer-E Ltd).

[3] = test system: viruses in water surrounding coral nubbins; assay: Viral abundance and viral enrichment in seawater surrounding coral nubbins (microcosm incubation); conditions: for Total viral abundances (TVN): seawater surrounding Acropora sp. nubbins, compound concentration per Table 2; for Viral enrichment factor (VEF): ratio of viral abundances, end vs start of incubation
Protocol: as §1
(§2) After subsampling, sea water was transferred into sterile test tubes without use of fixatives and stored at −20° C. until laboratory analysis for quantification of viral and prokaryotic abundance. Once in laboratory, the water samples were immediately processed. Briefly, 200 uL sea water were diluted 1:10 with prefiltered MilliQ water, through 0.02-μm pore filters (Anodisc filter; 25-mm diameter, Al2O3; Whatman) and stained with 20 μL SYBR Green (stock solution diluted 1:20; Invitrogen, Carlsbad, Calif., USA). […] Slides were stored at −20° C. until microscopy analysis. Virus and prokaryote counts were obtained by epifluorescence microscopy (magnification, ×1000; Zeiss Axioplan) by examining at least 10 optical fields, that is, at least 200 cells or viruses per replicate. Viral (and prokaryotic) enrichment was calculated as ratio between virus (and prokaryote) abundances and virus (and prokaryote) abundance at the […] of the experiment.

[4] = test system: prokaryotes in water surrounding coral nubbins; assay: Prokaryotic (bacterial) abundance and enrichment in seawater surrounding coral nubbins (microcosm incubation); conditions: seawater surrounding Acropora sp. nubbins
Protocol: as §1, §2

[5] = test system: symbiotic zooxanthellae released from coral nubbins; assay: Zooxanthellae counts: zooxanthellae released in water surrounding coral nubbins; format: in vivo, Acropora sp.; conditions: for Healthy zooxanthellae released / Pale zooxanthellae released / Total zooxanthellae released / Transparent (i.e., dead) zooxanthellae released: end of incubation (72 h); for Percentage of healthy zooxanthellae released / Percentage of pale zooxanthellae released / Percentage of transparent zooxanthellae released: of total released, end of incubation
Protocol: as §1
Subsamples (50 mL) of seawater surrounding coral nubbins were collected at the start of the experiment (T0) and after 6, 12, 24, 36, 48 and 72 hours of incubation. The subsamples were fixed in 3% glutaraldehyde and then about 6.0 ml of each replicate was filtered through 2.0-μm polycarbonate filters. Filters were mounted on glass slides and zooxanthellae counted under epifluorescence microscopy (Zeiss Axioplan, Carl Zeiss Inc., Jena, Germany; ×400 and ×1000) using standard and UV light.

| Compound | Eco-compatibility [1] | Number of color channels (of 4, CMYK) significantly altered [2] | Total viral abundances (TVN) ([3]; incubation 0 (start)) [viruses ml^−1] | Total viral abundances (TVN) ([3]; incubation 12 h) [viruses ml^−1] | Viral enrichment factor (VEF) [3] | Bacterial abundance (total bacterial number, TBN) ([4]; incubation 0 (start)) | Bacterial abundance (total bacterial number, TBN) ([4]; incubation 12 h) | Healthy zooxanthellae released [5] [cells ml^−1] | Pale zooxanthellae released [5] [cells ml^−1] | Total zooxanthellae released [5] [cells ml^−1] | Transparent (i.e., dead) zooxanthellae released [5] [cells ml^−1] | Percentage of healthy zooxanthellae released [5] [%] | Percentage of pale zooxanthellae released [5] [%] | Percentage of transparent zooxanthellae released [5] [%] | Eco-compatibility ([1]; criteria: bleaching level, zooxanthellae release, zooxanthellae health, viral enrichment, listed as MBBT) | Decrease of VPR ([3]; after incubations) |
| --- | --- | --- | --- | --- | --- | --- | --- | --- | --- | --- | --- | --- | --- | --- | --- | --- |
| CCCCCCCCCCCCCCCC(=O)OC/C=C(C)/C=C/C=C(C)/C=C/C1=C(C)CCCC1(C)C [System D19, retinyl palmitate] | Compatible | 1 | 1.03E+05 | 1.98E+06 | 18.92 | 3.62E+04 | 1.54E+06 | 1.07E+03 | 5.30E+03 | 1.23E+04 | 5.97E+03 | 9 | 43 | 48 |  |  |
| CC1=C(/C=C/C(C)=C/C=C/C(C)=C/CO)C(C)(C)CCC1 [System D20, Retinol] | Compatible | 1 | 2.47E+05 | 1.97E+06 | 8.09 | 3.62E+04 | 1.71E+06 | 6.04E+02 | 7.18E+03 | 1.46E+04 | 6.84E+03 | 4 | 49 | 47 |  |  |
| CC(C)(C)CC(C)(C)c1cc(Cc2cc(C(C)(C)CC(C)(C)C)cc(-n3nc4ccccc4n3)c2O)c(O)c(-n2nc3ccccc3n2)c1 [System D22] |  |  | 5.06E+05 | 2.99E+06 | 6.16 | 5.47E+04 | 9.18E+05 | 4.70E+02 | 6.91E+03 | 1.80E+04 | 1.06E+04 | 3 | 38 | 59 | greater eco-compatibility; also recorded: Highly compatible | up to 10 times |
